{"source": "patent EP0833899B1", "about": "“CIS-9,10-OCTADECENOAMIDASE” (THE SCRIPPS RESEARCH INSTITUTE, priority 1995, dated 1996)", "key": {"rats": {"system": "rats", "assay": "effect on spontaneous behavior (sleep induction) after ip injection", "format": "in vivo", "protocol": "Synthetic cis-9,10-octadecenoamide was injected (ip) into rats in order to test its effect on spontaneous behavior at different doses: 1 (n=2), 2 (n=2), 5 (n=7), 10 (n=10), 20 (n=2), and 50 (n=2) mg, where n = number of rats tested. […] However, at a threshold of 5 mg and above there was a marked effect consisting of an induction of long-lasting motor quiescence associated with eyes closed, sedated behavior characteristic of normal sleep. Also as with normal sleep, the rats still responded to auditory stimuli with orienting reflex and sustained attention toward the source of stimulation. In addition, motor behavior was impaired. The latency to behavioral sedation following administration was about 4 minutes and subjects were normally active again after 1 hour (5 mg), 2 hour (10 mg), or 2.5 hour (20 mg and 50 mg).\n(§1) We have compared cis-9,10-octadecenoamide to vehicle and the synthetic analogs listed in Figure 1 to estimate the structural specificity of its sleep-inducing potential. […] More particularly, male Sprague-Dawley rats (300 g at the time of surgery) were implanted under halothane anesthesia (2-3%) with a standard set of electrodes for sleep recordings. This included two screw electrodes placed in the parietal bone over the hippocampus to record the subjects electroencephalogram (EEG) and two wire electrodes inserted in the neck musculature to record postural tone through electromyographic activity (EMG). Rats were housed individually with at libitum access to food and water. The dark-light cycle was controlled (12:12, lights on a 10:00 p.m.). One week after the surgery, rats were habituated to the recording conditions for at least three days. Upon the completion of the habituation period, rats received 2 milliliter (ip) of either: vehicle (5% ethanol/saline solution), cis-9,10-octadecenoamide (10 mg), or oleic acid (10 mg). […] Sleep recordings were visually scored and four stages were determined: wakefulness, slow-wave-sleep 1 (SWS1), slow-wave-sleep 2 (SWS2), and rapid eye movement (REM) sleep."}, "[1]": {"biological_target": "T1, cis-9,10-octadecenoamidase, rat brain membrane fraction (Rattus norvegicus, UniProt P97612)", "T1 sequence (P97612 1-579)": "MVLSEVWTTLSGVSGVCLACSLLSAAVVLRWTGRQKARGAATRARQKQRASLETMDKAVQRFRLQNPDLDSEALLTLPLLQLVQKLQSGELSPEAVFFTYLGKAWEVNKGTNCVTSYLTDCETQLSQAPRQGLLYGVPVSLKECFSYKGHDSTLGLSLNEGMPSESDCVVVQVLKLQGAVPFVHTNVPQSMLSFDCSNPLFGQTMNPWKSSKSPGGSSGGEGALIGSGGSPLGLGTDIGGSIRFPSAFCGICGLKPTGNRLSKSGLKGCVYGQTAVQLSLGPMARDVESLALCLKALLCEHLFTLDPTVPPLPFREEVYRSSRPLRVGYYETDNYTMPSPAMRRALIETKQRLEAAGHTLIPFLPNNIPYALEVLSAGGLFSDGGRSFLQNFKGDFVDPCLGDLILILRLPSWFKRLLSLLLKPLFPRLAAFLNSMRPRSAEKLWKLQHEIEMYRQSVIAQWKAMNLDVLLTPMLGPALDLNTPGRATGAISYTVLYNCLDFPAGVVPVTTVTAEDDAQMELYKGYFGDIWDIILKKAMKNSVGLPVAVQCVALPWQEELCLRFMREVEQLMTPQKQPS", "format": "biochemical", "conditions": "1 mM inhibitor, 1000 µM", "protocol": "In each case the enzymic reaction is performed is a separate reaction vessel and the product is spotted onto a TLC plate.\nThe following protocol is used for assaying cis-9,10-octadecenoamide hydrolysis activity: To […] of 125 mM Tris·HCl, pH 9.0 was added successively 70 mL protein fraction (1 mg/mL protein concentration for brain membrane fraction, 2 mg/mL for brain soluble fraction, 5 mg/mL for pancreatic microsomal preparation), 6 mL of ethanol, and 4 mL of ^14C-cis-9,10-octadecenoamide (in ethanol, 0.25 mCi/mL). Each reaction mixture is incubated for 4 hours at 37°C and then partitioned between EtOAc and 0.07 M HCl. The EtOAc layer is evaporated to dryness and the remaining residue is dissolved in 15 mL ethanol. TLC fractions are taken from this ethanol stock. TLC plates are treated with EN^3HANCE spray and developed at -78°C for 2 hours."}, "[2]": {"biological_target": "T2, amidase activity which catalyzes both the hydrolysis and synthesis of arachidonylethanolamide (anandamide), membrane subcellular fractions from neuroblastoma, g (Rattus norvegicus, UniProt P97612)", "T2 sequence (P97612 1-579)": "T1 sequence (P97612 1-579)", "conditions": "1.5 mM concentration; cited from earlier work"}, "male Sprague-Dawley rats": {"system": "male Sprague-Dawley rats", "assay": "polysomnographic sleep recordings (EEG/EMG) after ip injection", "format": "in vivo", "conditions": "10 mg ip, compared to vehicle controls, recorded four hours", "source_text": "as §1\nThese increases with respect to slow wave sleep (SWS) were at the expense of waking."}}, "note": "Where two headings read alike, the source gives them in different places.", "data": [{"smiles": "CCCCCCCC/C=C\\CCCCCCCC(=O)O", "note": "[oleic acid, Oleic acid, reference compound]", "values": [{"measurement": "overt behavioral effect", "setting": "rats; rats, compared with cis-9,10-octadecenoamide", "value": "nor oleic acid (5) showed any overt behavioral effect"}]}, {"smiles": "CCCCCCCCC/C=C\\CCCCCCC(N)=O", "note": "[Compound 3, Cis-8,9-octadecenoamide]", "values": [{"measurement": "pharmacological effects compared with cis-9,10-octadecenoamide", "setting": "rats; rats", "value": "substantial reduction in both the degree and duration of the pharmacological effects"}]}, {"smiles": "O=S(=O)(F)Cc1ccccc1", "note": "[phenylmethylsulfonyl fluoride]", "values": [{"measurement": "inhibition of enzymatic activity (hydrolysis of cis-9,10-octadecenoamide to oleic acid)", "setting": "[1]", "value": "completely inhibited"}, {"measurement": "inhibition of enzymatic activity (hydrolysis of cis-9,10-octadecenoamide to oleic acid)", "setting": "[1]; listed as PMSF", "value": "inhibited"}, {"measurement": "inhibition of the amidase activity (anandamide hydrolysis)", "setting": "[2]", "value": "completely inhibited"}]}, {"smiles": "CCCCCCCC/C=C\\CCCCCCCC(N)=O", "note": "[cis-9,10-octadecenoamide, Cis-9,10-octadecenoamide]", "values": [{"measurement": "time after which subjects were normally active again", "setting": "rats; 5 mg ip, rats", "value": 1, "unit": "h"}, {"measurement": "time after which subjects were normally active again", "setting": "rats; 10 mg ip, rats", "value": 2, "unit": "h"}, {"measurement": "duration of the biological effect (sleep-inducing properties)", "setting": "rats; 10 mg per rat", "value": "two"}, {"measurement": "time after which subjects were normally active again", "setting": "rats; 20 mg ip, rats", "value": 2.5, "unit": "h"}, {"measurement": "time after which subjects were normally active again", "setting": "rats; 50 mg ip, rats", "value": 2.5, "unit": "h"}, {"measurement": "latency to behavioral sedation following administration", "setting": "rats; ip, rats", "value": "about 4 minutes"}, {"measurement": "threshold dose for induction of long-lasting motor quiescence, sedated behavior characteristic of normal sleep", "setting": "rats; ip, rats", "value": 5, "unit": "mg"}, {"measurement": "effect on spontaneous behavior", "setting": "rats; lower doses (1 and 2 mg), ip, rats", "value": "no overt effect on spontaneous behavior"}, {"measurement": "mean duration of the SWS individual periods", "setting": "male Sprague-Dawley rats", "value": "increase"}, {"measurement": "total time of slow wave sleep (SWS)", "setting": "male Sprague-Dawley rats", "value": "increase"}]}, {"smiles": "CCCCCCCC/C=C\\CCCCCCCCCCCC(N)=O", "note": "[Compound 6, Erucamide]", "values": [{"measurement": "pharmacological effects compared with cis-9,10-octadecenoamide", "setting": "rats; rats", "value": "substantial reduction in both the degree and duration of the pharmacological effects"}]}, {"smiles": "CCCCCC/C=C\\CCCCCCCCCC(N)=O", "note": "[Compound 4, Cis-11,12-octadecenoamide]", "values": [{"measurement": "pharmacological effects compared with cis-9,10-octadecenoamide", "setting": "rats; rats", "value": "substantial reduction in both the degree and duration of the pharmacological effects"}]}]}
